Laboratory results: patent US12077503B2, “Substituted cyclic amides and their use as herbicides” (FMC CORPORATION, priority 2015, dated 2024)

Key:
Assay type in all cases: in vivo
[1] = tested on: sedge, umbrella (small-flower umbrella sedge, Cyperus difformis); assay: Test B flooded paddy test; conditions: Flood, 0 to 100 scale where 0 is no effect and 100 is complete control, 13 to 15 d
Procedure, shortened: (§1)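 Plants at 2-leaf stage flooded to 3 cm above soil, with compounds applied directly to paddy water and that depth maintained. Plants kept in greenhouse 13–15 d. Visual rating versus controls on a 0 (no effect) to 100 (complete control) scale.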

rice (Oryra sativa) = assay: Test B flooded paddy test; conditions: Flood, 0 to 100 scale where 0 is no effect and 100 is complete control, 13 to 15 d
Procedure, shortened: as §1

[2] = tested on: ducksalad (Heteranthera limosa); assay: Test B flooded paddy test; conditions: Flood, 0 to 100 scale where 0 is no effect and 100 is complete control, 13 to 15 d
Procedure, shortened: as §1

[3] = tested on: barnyardgrass (Echinochloa crus-galli); assay: Test B flooded paddy test; conditions: Flood, 0 to 100 scale where 0 is no effect and 100 is complete control, 13 to 15 d
Procedure, shortened: as §1

[4] = tested on: Galium (catchweed bedstraw, Galium aparine); assay: Test A postemergence; conditions: postemergence, 0 to 100 scale (0 no effect, 100 complete control)
Procedure, shortened: (§2)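 In a loam soil and sand blend, planted seeds got a preemergence directed soil spray, and young plants at the one- to two-leaf stage, 2–10 cm high, got a postemergence application; ~10 d greenhouse hold; injury rated visually, 0 = none, 100 = complete control.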

Kochia (Kochia scoparia) [5] = assay: Test A postemergence; conditions: postemergence, 0 to 100 scale (0 no effect, 100 complete control)
Procedure, shortened: as §2

[6] = tested on: giant foxtail (Setaria faberii); assay: Test A postemergence; conditions: postemergence, 0 to 100 scale (0 no effect, 100 complete control)
Procedure, shortened: as §2

corn (Zea mays) = assay: Test A postemergence
Procedure, shortened: as §2

[7] = tested on: ragweed (common ragweed, Ambrosia elatior); assay: Test A postemergence; conditions: postemergence, 0 to 100 scale (0 no effect, 100 complete control)
Procedure, shortened: as §2

[8] = tested on: pigweed (Amaranthus retroflexus); assay: Test A postemergence; conditions: postemergence, 0 to 100 scale (0 no effect, 100 complete control)
Procedure, shortened: as §2

[9] = tested on: wheat (Triticum aestivum); assay: Test A postemergence; conditions: postemergence, 0 to 100 scale (0 no effect, 100 complete control)
Procedure, shortened: as §2

[10] = tested on: blackgrass (Alopecurus myosuroides); assay: Test A postemergence
Procedure, shortened: as §2

[11] = tested on: barnyardgrass (Echinochloa crus-galli); assay: Test A postemergence
Procedure, shortened: as §2

[12] = tested on: ryegrass, Italian (Italian ryegrass, Lolium multiflorum); assay: Test A postemergence; conditions: postemergence, 0 to 100 scale (0 no effect, 100 complete control)
Procedure, shortened: as §2

Kochia (Kochia scoparia) [13] = assay: Test A preemergence
Procedure, shortened: as §2

[14] = tested on: giant foxtail (Setaria faberii); assay: Test A preemergence
Procedure, shortened: as §2

[15] = tested on: ragweed (common ragweed, Ambrosia elatior); assay: Test A preemergence
Procedure, shortened: as §2

[16] = tested on: pigweed (Amaranthus retroflexus); assay: Test A preemergence
[17] = tested on: barnyardgrass (Echinochloa crus-galli); assay: Test A preemergence
Procedure, shortened: as §2

[18] = tested on: ryegrass, Italian (Italian ryegrass, Lolium multiflorum); assay: Test A preemergence
Procedure, shortened: as §2

[19] = 125 g ai/ha, visual rating after approx. 10 d
[20] = 500 g ai/ha, visual injury, approx. 10 d
[21] = 125 g ai/ha, postemergence, visual rating after approx. 10 d, 0 to 100 scale (0 no effect, 100 complete control)
[22] = Postemergence, 500 g ai/ha, 0 to 100 scale where 0 is no effect and 100 is complete control
[23] = 125 g ai/ha, Preemergence, visual injury after approximately 10 d, 0 to 100 scale where 0 is no effect and 100 is complete control
[24] = 500 g ai/ha, preemergence, 0 to 100 scale, 0 = no effect, 100 = complete control
[25] = 500 g ai/ha, postemergence, visual injury, 0 to 100 scale (0 no effect, 100 complete control), approx. 10 d

SMILES | Plant response rating, Galium [4, 19] | Plant response rating, Galium [4, 20] | Plant response rating, Kochia (Kochia (Kochia scoparia) [5]; [19]) | Plant response rating, Kochia (Kochia (Kochia scoparia) [5]; [20]) | Plant response rating, Foxtail, Giant [6, 19] | Plant response rating, Foxtail, Giant [6, 20] | Plant response rating, Corn (corn (Zea mays); [21]) | Plant response rating, Ragweed [7, 19] | Plant response rating, Ragweed [7, 20] | Plant response rating, Pigweed [8, 19] | Plant response rating, Pigweed [8, 20] | Plant response rating, Wheat [9, 19] | Plant response rating, Wheat [9, 20] | Plant response rating, Blackgrass [10, 21] | Plant response rating, Barnyardgrass [11, 21] | Plant response rating, Ryegrass, Italian [12, 19] | Plant response rating, Ryegrass, Italian [12, 20] | Plant response rating, Kochia (Kochia (Kochia scoparia) [13]; [23]) | Plant response rating, Kochia (Kochia (Kochia scoparia) [13]; [24]) | Plant response rating, Foxtail, Giant [14, 23] | also measured
NS(=O)(=O)c1ccccc1NC(=O)C1C(=O)NCC1c1cccc(C(F)(F)F)c1 (stereo not drawn) [Compound 634] | 30 | 60 | 0 | 0 | 50 | 80 | 0 | 0 | 0 | 0 | 0 | 0 | 0 | 0 | 40 | 0 | 20 | 0 | 0 | 60 | Plant response rating, Sedge, Umbrella ([1]; 500 g ai/ha): 0; Plant response rating, Rice (rice (Oryra sativa); 500 g ai/ha): 15; Plant response rating, Ducksalad ([2]; 500 g ai/ha): 40; Plant response rating, Barnyardgrass ([3]; 500 g ai/ha): 20; Plant response rating, Corn (corn (Zea mays); [22]): 0; Plant response rating, Blackgrass [10, 22]: 0; Plant response rating, Barnyardgrass [11, 22]: 80; Plant response rating, Foxtail, Giant [14, 24]: 80; Plant response rating, Ragweed [15, 23]: 0; Plant response rating, Ragweed [15, 24]: 0; Plant response rating, Pigweed [16, 23]: 0; Plant response rating, Pigweed [16, 24]: 30; Plant response rating, Barnyardgrass [17, 23]: 20; Plant response rating, Barnyardgrass [17, 24]: 70; Plant response rating, Ryegrass, Italian [18, 23]: 0; Plant response rating, Ryegrass, Italian [18, 24]: 0
Cc1ccc(C2CNC(=O)C2C(=O)Nc2cccc(F)c2F)cc1C(F)(F)F (stereo not drawn) [Compound 642] | 50 | 70 | 20 | 50 | 20 | 70 | 50 | 0 | 40 | 0 | 20 | 0 | 20 | 20 | 70 | 40 | 50 | 40 | 60 | 90 | Plant response rating, Sedge, Umbrella ([1]; 250 g ai/ha): 0; Plant response rating, Rice (rice (Oryra sativa); 250 g ai/ha): 30; Plant response rating, Ducksalad ([2]; 250 g ai/ha): 100; Plant response rating, Barnyardgrass ([3]; 250 g ai/ha): 30; Plant response rating, Corn (corn (Zea mays); [25]): 70; Plant response rating, Blackgrass [10, 25]: 40; Plant response rating, Barnyardgrass [11, 25]: 90; Plant response rating, Foxtail, Giant [14, 24]: 90; Plant response rating, Ragweed [15, 23]: 0; Plant response rating, Ragweed [15, 24]: 50; Plant response rating, Pigweed [16, 23]: 50; Plant response rating, Pigweed [16, 24]: 60; Plant response rating, Barnyardgrass [17, 23]: 90; Plant response rating, Barnyardgrass [17, 24]: 90; Plant response rating, Ryegrass, Italian [18, 23]: 50; Plant response rating, Ryegrass, Italian [18, 24]: 80
